Data: ChEMBL document CHEMBL4765389, “Antimicrobial and anti-inflammatory activities of short dodecapeptides derived from duck cathelicidin: Plausible mechanism of bactericidal action and endotoxin neutralization” (Eur J Med Chem, 2020)
Activity calls are given as the source filed them. The calls are words filed in the database; no cut-off is given here.

Columns and labels:
Bacteria [1] = assay: Antibacterial activity against Gram positive bacteria assessed as reduction in bacterial growth incubated for 24 hrs by CLSI based broth dilution method; assay type: functional; conditions: read-out: MIC100
Salmonella typhimurium = assay: Antibacterial activity against Salmonella typhimurium KCTC 1926 assessed as reduction in bacterial growth incubated for 24 hrs by CLSI based broth dilution method; assay type: functional, Salmonella enterica subsp. enterica serovar Typhimurium; conditions: Salmonella enterica, read-out: MIC100
[2] = Cytotoxicity against mouse NIH/3T3 cells assessed as reduction in cell viability at 10 uM incubated for 24 hrs by MTT assay; assay type: cell-based, NIH3T3; conditions: read-out: INH
[3] = test system: Staphylococcus epidermidis; assay: Antibacterial activity against Staphylococcus epidermidis KCTC 1917 assessed as reduction in bacterial growth incubated for 24 hrs by CLSI based broth dilution method; assay type: functional; conditions: read-out: MIC100
Bacillus subtilis = assay: Antibacterial activity against Bacillus subtilis KCTC 3068 assessed as reduction in bacterial growth incubated for 24 hrs by CLSI based broth dilution method; assay type: functional; conditions: read-out: MIC100
Saccharomyces cerevisiae = assay: Antifungal activity against yeast assessed as reduction in fungal growth incubated for 24 hrs by CLSI based broth dilution method; assay type: functional; conditions: read-out: MIC100
Staphylococcus aureus [4] = assay: Antibacterial activity against methicillin-resistant Staphylococcus aureus CCARM 3095 assessed as reduction in bacterial growth incubated for 24 hrs by CLSI based broth dilution method; assay type: functional; conditions: read-out: MIC100
Staphylococcus aureus [5] = assay: Antibacterial activity against methicillin-resistant Staphylococcus aureus CCARM 3090 assessed as reduction in bacterial growth incubated for 24 hrs by CLSI based broth dilution method; assay type: functional; conditions: read-out: MIC100
[6] = Cytotoxicity against mouse RAW264.7 cells assessed as reduction in cell viability at 20 uM incubated for 24 hrs by MTT assay; assay type: cell-based; conditions: read-out: INH
[7] = Antibacterial activity against multidrug-resistant Pseudomonas aeruginosa CCARM 2095 assessed as reduction in bacterial growth incubated for 24 hrs by CLSI based broth dilution method; assay type: functional; conditions: read-out: MIC100
Erythrocyte [8] = assay: Hemolytic activity in sheep RBC assessed as reduction in hemoglobin incubated for 1 hr; assay type: ADME, cell-based, Ovis aries
Pseudomonas aeruginosa = assay: Antibacterial activity against Pseudomonas aeruginosa KCTC 1637 assessed as reduction in bacterial growth incubated for 24 hrs by CLSI based broth dilution method; assay type: functional; conditions: read-out: MIC100
[9] = Retention time of the compound by RP-HPLC method; assay type: physicochemical
[10] = Hemolytic activity in sheep RBC assessed as reduction in hemoglobin at 64 uM incubated for 1 hr; assay type: ADME, cell-based, Ovis aries, Erythrocyte; conditions: sheep red blood cells (erythrocytes), read-out: Activity
[11] = Antibacterial activity against multidrug-resistant Pseudomonas aeruginosa CCARM 2109 assessed as reduction in bacterial growth incubated for 24 hrs by CLSI based broth dilution method; assay type: functional; conditions: read-out: MIC100
[12] = Therapeutic index, ratio of HC10 for sheep RBC to geometric mean MIC for gram positive bacteria; assay type: toxicity; conditions: sheep red blood cells, read-out: TI
[13] = Cytotoxicity against mouse RAW264.7 cells assessed as reduction in cell viability at 10 uM incubated for 24 hrs by MTT assay; assay type: cell-based; conditions: read-out: INH
Bacteria [14] = assay: Antibacterial activity against Gram negative bacteria assessed as reduction in bacterial growth incubated for 24 hrs by CLSI based broth dilution method; assay type: functional; conditions: read-out: MIC100
[15] = Therapeutic index, ratio of HC10 for sheep RBC to geometric mean MIC for gram negative bacteria; assay type: toxicity; conditions: sheep red blood cells, read-out: TI
[16] = Cytotoxicity against mouse NIH/3T3 cells assessed as reduction in cell viability at 20 uM incubated for 24 hrs by MTT assay; assay type: cell-based, NIH3T3; conditions: NIH/3T3 cells, read-out: INH
Staphylococcus aureus [17] = assay: Antibacterial activity against methicillin-resistant Staphylococcus aureus CCARM 3089 assessed as reduction in bacterial growth incubated for 24 hrs by CLSI based broth dilution method; assay type: functional; conditions: read-out: MIC100
Candida albicans [18] = assay: Antifungal activity against Candida albicans KCTC 7121 assessed as reduction in fungal growth incubated for 24 hrs by CLSI based broth dilution method; assay type: functional; conditions: read-out: MIC100
Escherichia coli = assay: Antibacterial activity against Escherichia coli KCTC 1682 assessed as reduction in bacterial growth incubated for 24 hrs by CLSI based broth dilution method; assay type: functional; conditions: read-out: MIC100
Enterococcus faecium = assay: Antibacterial activity against vancomycin-resistant Enterococcus faecium ATCC 51559 assessed as reduction in bacterial growth incubated for 24 hrs by CLSI based broth dilution method; assay type: functional; conditions: read-out: MIC100
Candida albicans [19] = assay: Antifungal activity against Candida albicans KCTC 7965 assessed as reduction in fungal growth incubated for 24 hrs by CLSI based broth dilution method; assay type: functional; conditions: read-out: MIC100
Staphylococcus aureus [20] = assay: Antibacterial activity against Staphylococcus aureus KCTC 1621 assessed as reduction in bacterial growth incubated for 24 hrs by CLSI based broth dilution method; assay type: functional; conditions: read-out: MIC100
Erythrocyte [21] = assay: Hemolytic activity in sheep RBC assessed as reduction in hemoglobin at 256 uM incubated for 1 hr; assay type: ADME, cell-based, Ovis aries
[22] = Therapeutic index, ratio of HC10 for sheep RBC to geometric mean MIC for yeast; assay type: toxicity; conditions: sheep red blood cells, read-out: TI
RAW264.7 [23] = assay: Antiinflammatory activity in mouse RAW264.7 cells assessed as suppression of LPS binding by measuring LPS-FITC aggregation at 10 uM pretreated with LPS for 1 hr followed by compound addition and measured after 30 mins by flowcytometry analysis (reference value: 67.93 %); assay type: functional; conditions: 0.5 h
Lipopolysaccharide (LPS) = assay: Inhibition of Escherichia coli O111:B4 LPS aggregation assessed as increase in FITC-LPS dissociation at 2 uM by spectrofluorometry
RAW264.7 [24] = assay: Antiinflammatory activity in mouse RAW264.7 cells assessed as neutralization of LPS binding by measuring LPS-FITC aggregation at 10 uM pretreated with LPS for 1 hr followed by compound addition and measured after 1 hr by flowcytometry analysis (reference value: 48.12 %); assay type: functional
RAW264.7 [25] = assay: Antiinflammatory activity against mouse RAW264.7 cells assessed as reduction in LPS-induced nitrite level at 5 uM incubated for 24 hrs by Griess reagent based assay relative to control; assay type: functional
RAW264.7 [26] = assay: Antiinflammatory activity against mouse RAW264.7 cells assessed as reduction in LPS-induced TNFalpha level at 10 uM incubated for 24 hrs by […] relative to control; assay type: functional

Substance | MIC (Bacteria [1]) | MIC (Salmonella typhimurium) | MIC [3] | MIC (Bacillus subtilis) | MIC (Saccharomyces cerevisiae) | MIC (Staphylococcus aureus [4]) | MIC (Staphylococcus aureus [5]) | cytotoxicity at 24 h, 20 µM [6] | MIC [7] | HC10 (Erythrocyte [8]) | MIC (Pseudomonas aeruginosa) | Retention_time [9] | MIC [11] | selectivity ratio [12] | MIC (Bacteria [14]) | selectivity ratio [15] | cytotoxicity at 24 h, 20 µM [16] | MIC (Staphylococcus aureus [17]) | MIC (Candida albicans [18]) | MIC (Escherichia coli) | also measured
H-FWQLVPLAIKIYRAWKRR-NH2 | 20.5 µM | 8 µM | 16 µM | 8 µM | 16 µM | 32 µM | 16 µM | < 10% | 32 µM | 1.3 µM | 16 µM | 29 min | 32 µM | 0.1 | 20.8 µM | 0.1 | < 10% | 32 µM | 16 µM | 16 µM | cytotoxicity at 24 h, 10 µM [2]: 40%; hemolysis at 1 h, 64 µM [10]: 100%; cytotoxicity at 24 h, 10 µM [13]: 40%; MIC (Enterococcus faecium): 32 µM; MIC (Candida albicans [19]): 16 µM; MIC (Staphylococcus aureus [20]): 8 µM; Activity (Erythrocyte [21]): Non-Toxic; selectivity ratio [22]: 0.1
H-KRFWQLVPLAIKIYRAWKRR-OH | 11.4 µM | 4 µM | 8 µM | 8 µM | 12 µM | 8 µM | 16 µM | < 10% | 16 µM | 5.1 µM | 16 µM | 26.8 min | 16 µM | 0.4 | 12 µM | 0.4 | < 10% | 16 µM | 16 µM | 8 µM | cytotoxicity at 24 h, 10 µM [2]: 40%; hemolysis at 1 h, 64 µM [10]: 40%; cytotoxicity at 24 h, 10 µM [13]: 40%; MIC (Enterococcus faecium): 16 µM; MIC (Candida albicans [19]): 8 µM; MIC (Staphylococcus aureus [20]): 8 µM; Activity (Erythrocyte [21]): Non-Toxic; selectivity ratio [22]: 0.4
H-LAIKIYRAWKRR-NH2 | 21.1 µM | 8 µM | 4 µM | 8 µM | 12 µM | 32 µM | 32 µM | < 10% | 32 µM | > 256 µM | 4 µM | 16.4 min | 16 µM | 243 | 15.2 µM | 33.7 | < 10% | 32 µM | 16 µM | 16 µM | Activity (RAW264.7 [23]): 59.24%; inhibition (Lipopolysaccharide (LPS)): Active; Activity (RAW264.7 [24]): 42.35%; MIC (Enterococcus faecium): 32 µM; MIC (Candida albicans [19]): 8 µM; inhibition at 5 µM (RAW264.7 [25]): < 10%; MIC (Staphylococcus aureus [20]): 8 µM; Activity (Erythrocyte [21]): Non-Toxic; inhibition at 10 µM (RAW264.7 [26]): < 10%; selectivity ratio [22]: 42.7
